Experimental data as given in ChEMBL document CHEMBL4616610, “Discovery of a novel unsymmetrical structural class of HCV NS5A inhibitors with low picomolar antiviral activity” (Bioorg Med Chem Lett, 2020).

Tests used:
[1] = molecular target: T1, Nonstructural protein 5A (Hepatitis C virus, UniProt Q5L478); experiment: Inhibition of NS5A in Hepatitis C virus subtype 1b replicon infected in human HuH7 cells assessed as reduction in viral replication; format: cell-based; conditions: huh-7
T1 sequence (Q5L478 whole entry): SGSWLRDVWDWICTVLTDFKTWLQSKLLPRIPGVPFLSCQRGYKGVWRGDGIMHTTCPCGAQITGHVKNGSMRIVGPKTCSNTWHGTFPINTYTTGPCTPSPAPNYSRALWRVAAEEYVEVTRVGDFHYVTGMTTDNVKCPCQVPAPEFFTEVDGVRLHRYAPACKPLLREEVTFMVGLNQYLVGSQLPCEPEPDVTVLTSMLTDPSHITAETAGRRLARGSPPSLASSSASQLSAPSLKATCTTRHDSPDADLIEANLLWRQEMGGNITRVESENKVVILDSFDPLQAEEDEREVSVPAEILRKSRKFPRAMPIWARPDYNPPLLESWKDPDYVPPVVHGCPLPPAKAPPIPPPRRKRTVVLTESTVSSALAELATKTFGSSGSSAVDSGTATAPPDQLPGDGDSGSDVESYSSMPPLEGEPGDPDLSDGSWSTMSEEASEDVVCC

[2] = Inhibition of NS5A Q30K mutant in Hepatitis C virus subtype 1a replicon infected in human HuH7 cells assessed as reduction in viral replication; format: cell-based; conditions: Huh-7
[3] = Inhibition of NS5A Q30K mutant in Hepatitis C virus subtype 1a replicon assessed as reduction in viral replication using Ac-Asp-Glu-Asp (EDANS)-Glu-Glu-Abu-(COO) Ala-Ser-Lys (DABCYL)-NH2 as substrate measured after 72 hrs by FRET assay
[4] = Inhibition of NS5A in Hepatitis C virus subtype 1b replicon assessed as reduction in viral replication using Ac-Asp-Glu-Asp (EDANS)-Glu-Glu-Abu-(COO) Ala-Ser-Lys (DABCYL)-NH2 as substrate measured after 72 hrs by FRET assay

CCCC(=O)Nc1ccc(-c2ccc(-c3c[nH]c([C@@H]4CCCN4C(=O)[C@H](NC(=O)N4CCCC4)c4ccccc4)n3)cc2)cc1
EC50 [1]: Not Active

CCCC(=O)Nc1ccc(-c2ccc(-c3c[nH]c([C@@H]4CCCN4C(=O)[C@H](NC(=O)c4ccccc4NC(=O)OCc4ccccc4)c4ccccc4)n3)cc2)cc1
EC50 [1]: Not Active

CCCC(=O)Nc1ccc(-c2ccc(-c3c[nH]c([C@@H]4CCCN4C(=O)[C@H](NC(=O)c4ccc(NC(=O)OCc5ccccc5)cc4)c4ccccc4)n3)cc2)cc1
EC50 [1]: Not Active

COC1CCN(C(=O)Nc2ccc(-c3ccc(-c4c[nH]c([C@@H]5CCCN5C(=O)[C@H](NC(=O)N5CC[C@@H](NC(=O)OCc6ccccc6)C5)c5ccccc5)n4)cc3)cc2)CC1
EC50 [2]: 4.7 nM

CCCC(=O)Nc1ccc(-c2ccc(-c3c[nH]c([C@@H]4CCCN4C(=O)[C@H](NC(=O)CCCCCCc4ccccc4)c4ccccc4)n3)cc2)cc1
EC50 [1]: Not Active

CCCC(=O)Nc1ccc(-c2ccc(-c3c[nH]c([C@@H]4CCCN4C(=O)[C@H](NC(=O)N4CCC[C@H](NC(=O)OCc5ccccc5)C4)c4ccccc4)n3)cc2)cc1
EC50 [1]: Not Active

CCCC(=O)Nc1ccc(-c2ccc(-c3c[nH]c([C@@H]4CCCN4C(=O)[C@H](NC(=O)c4ccccc4)c4ccccc4)n3)cc2)cc1
EC50 [1]: Not Active

CCCC(=O)Nc1ccc(-c2ccc(-c3c[nH]c([C@@H]4CCCN4C(=O)[C@H](NC(=O)CCCc4ccccc4)c4ccccc4)n3)cc2)cc1
EC50 [1]: Not Active

COC(=O)N[C@H](C(=O)N1CCC[C@H]1c1ncc(-c2ccc(-c3ccc(-c4cnc([C@@H]5CCCN5C(=O)[C@@H](NC(=O)OC)C(C)C)[nH]4)cc3)cc2)[nH]1)C(C)C [DACLATASVIR]
EC50 [3]: 1230 nM
EC50 [4]: 0.009 nM
